{"source": "patent US12115178B2", "about": "“Acylated active agents and methods of their use for the treatment of autoimmune disorders” (Flagship Pioneering Innovations V, Inc., priority 2018, dated 2024)", "key": {"naïve CD4+ T cells": {"system": "naïve CD4+ T cells", "assay": "Human regulatory T cell differentiation assay", "assay_type": "cell-based", "conditions": "6 days", "experimental": "Peripheral blood mononuclear cells (PBMCs) from whole blood donated by health volunteers were separated by Ficoll-Paque gradient centrifugation and naïve CD4^+ T cells were subsequently isolated using magnet beads (EasySep™ Human Naïve CD4^+ T Cell Isolation Kit, Cambridge, MA). For regulatory T cell (Treg) differentiation assay, naïve CD4^+ T cells were cultured (1-10×10^4 cells) in CTS OpTmizer medium for 6 days and stimulated with 5 ng/ml TGF-β, 100 U/ml IL-2, and ImmunoCult™ Human […] T Cell Activator; Stemcell #10990) with/without our Compounds. Cell viability was determined using a viability dye (eBioscience Fixable Viability Dye eFluor 780: ThermoFisher 65-0865-14) at 1:500 dilution. The cells were gated for Treg, defined as Live, CD11c^−, CD14^−, CD19^−, CD8^−, CD4^+, CD3^+, CD25^+, FOXP3^+. Percent (%) Tregs were calculated as percentage of CD4^+, CD25^+, FOXP3^+ cells over total CD4 T cells. Statistical analysis was performed with GraphPad Prism Software Using One-Way ANOVA."}, "[1]": {"system": "type II collagen arthritis", "assay": "In vivo rheumatoid arthritis model (semi-established type II collagen arthritis)", "design": "species or system Lewis rats", "conditions": "420 mg/kg PO BID, rats", "experimental": "A study was conducted to determine the efficacy of test articles dosed by the oral (PO) route for inhibition of the inflammation (paw swelling), cartilage destruction, and bone resorption that occurs in semi-established type II collagen arthritis in female Lewis rats. Rats (10 per group) were injected intradermally (ID) with porcine type II collagen to induce arthritis; one group of rats (4 per group) served as vehicle-treated naïve controls. […] Positive controls were treated PO, BID with the reference compound Tofacitinib citrate (10 mg/kg). The rats were euthanized for necropsy on study day 21 (animals #1-5 in each group, animals #1-2 in naïve group) or 22 (animals #6-10 in each group, animals #3-4 in naïve group). Efficacy evaluation was based on animal body weights (Table 9), daily ankle caliper measurements (FIG. 4), ankle diameter expressed as area under the curve (AUC) (Table 10), terminal hind paw weights (Table 11), histopathologic evaluation of hind paws (Ankle Inflammation score: Table 12, Ankle Pannus score: Table 13, Ankle Cartilage Damage score: Table 14, Ankle Bone Resorption score: Table 15, Ankle Periosteal Bone score: Table 16, Ankle Periosteal Bone Width: Table 17) and knees (Knee Inflammation score: Table 18, Knee Pannus score: Table 19, Knee Cartilage Damage score: Table 20, Knee Bone Resorption score: Table 21), and relative spleen to body weight ratio (Table 22). Terminal serum was analyzed by enzyme-linked immunosorbent assay (ELISA) for anti-type II collagen antibodies (IgG) (Table 23). […] Statistics were conducted using ordinary one-way ANOVA with Dunnett's multiple comparison correction in GraphPad Prism."}}}
{"smiles": "CCCC(=O)O", "note": "[Butyric acid, reference compound]", "values": [{"measurement": "Cell viability % DMSO", "setting": "naïve CD4+ T cells; 3 mM", "result": "− (<90%: −)"}, {"measurement": "Mean Ankle Diameter AUC (mm*day)", "setting": "[1]", "result": 92.46, "unit": "mm*day"}, {"measurement": "Mean Ankle Periosteal Bone width (um)", "setting": "[1]", "result": 573.30, "unit": "um"}, {"measurement": "Mean Knee Inflammation score (0-5)", "setting": "[1]", "result": 4.83}, {"measurement": "Mean Terminal hind paw weights", "setting": "[1]", "result": 2.4759, "unit": "g"}, {"measurement": "Mean body weight change, day −1 to 21 (%)", "setting": "[1]", "result": "−2.3", "unit": "%"}, {"measurement": "Relative Spleen to Body Weight (Mean)", "setting": "[1]", "result": 0.2416}, {"measurement": "Mean Ankle Bone Resorption score (0-5)", "setting": "[1]; 0 = normal, 5 = severe", "result": 2.95}, {"measurement": "Mean Ankle Cartilage Damage score (0-5)", "setting": "[1]; 0 = normal, 5 = severe", "result": 3.80}, {"measurement": "Mean Ankle Pannus score (0-5)", "setting": "[1]; 0 = normal, 5 = severe", "result": 2.95}, {"measurement": "Mean Ankle Periosteal Bone score (0-5)", "setting": "[1]; 0 = normal, 5 = severe", "result": 3.08}, {"measurement": "Mean Ankle inflammation score (0-5)", "setting": "[1]; 0 = normal, 5 = severe", "result": 2.4759}, {"measurement": "Mean Knee Bone Resorption score (0-5)", "setting": "[1]; 0 = normal, 5 = severe", "result": 2.43}, {"measurement": "Mean Knee Cartilage Damage score (0-5)", "setting": "[1]; 0 = normal, 5 = severe", "result": 3.28}, {"measurement": "Mean Knee Pannus score (0-5)", "setting": "[1]; 0 = normal, 5 = severe", "result": 2.43}, {"measurement": "Serum IgG", "setting": "[1]; terminal serum ELISA for anti-type II collagen antibodies", "result": 5824.57, "unit": "µg/mL"}]}
{"smiles": "CC[C@H]1[C@@H](O)[C@@H]2[C@H](CC[C@]3(C)[C@@H]([C@H](C)CCC(=O)O)CC[C@@H]23)[C@@]2(C)CC[C@@H](O)C[C@@H]12", "note": "[Obeticholic acid]", "values": [{"measurement": "Cell viability % DMSO", "setting": "naïve CD4+ T cells; 100 uM", "result": "= (90%> <110%: =)"}]}
{"smiles": "CCC(=O)O", "note": "[Propionic acid]", "values": [{"measurement": "Cell viability % DMSO", "setting": "naïve CD4+ T cells; 3 mM", "result": "= (90%> <110%: =)"}]}
{"smiles": "CN(CCOc1ccc(CC2SC(=O)NC2=O)cc1)c1ccccn1", "note": "(stereo not drawn) [Rosiglitazone, rosiglitazone]", "values": [{"measurement": "Cell viability % DMSO", "setting": "naïve CD4+ T cells; 10 uM", "result": "= (90%> <110%: =)"}, {"measurement": "Cell viability % DMSO", "setting": "naïve CD4+ T cells; 100 uM", "result": "− (<90%: −)"}]}
{"smiles": "CC(O)CC(=O)[O-].[Na+]", "note": "(stereo not drawn) [Sodium BHB]", "values": [{"measurement": "Cell viability % DMSO", "setting": "naïve CD4+ T cells; 2 mM", "result": "= (90%> <110%: =)"}, {"measurement": "Treg induction % DMSO", "setting": "naïve CD4+ T cells; 2 mM", "result": "+ (110%> <130%: +)"}, {"measurement": "Cell viability % DMSO", "setting": "naïve CD4+ T cells; 20 mM", "result": "− (<90%: −)"}, {"measurement": "Treg induction % DMSO", "setting": "naïve CD4+ T cells; 20 mM", "result": "= (90%> <110%: =)"}]}
